Data from paper PMC8571316 (Scientific Reports, 2021).
Peptide text beside a SMILES is read from it. * marks the point of attachment. Biotin = O=C1N[C@H]2[C@H](CS[C@H]2CCCCC(=O)*)N1; PEG4 = NCCOCCOCCOCCOCCC(=O)O

Assays:
SARS-CoV-2 S1 protein [1] = biological target: T1, SARS-CoV-2 S1 protein (Severe acute respiratory syndrome coronavirus 2, UniProt P0DTC2); assay: biochemical; type: binding; conditions: for kon: read-out: S1 Protein in Binding Buffer ka (1/Ms); for koff: read-out: S1 Protein in Binding Buffer kdis (1/s)
T1 construct: immobilized SARS-CoV-2 S1 protein (His-tag, #S1N-C52H3, Acro Biosystems); His-tag; purchased Acro Biosystems S1N-C52H3

SARS-CoV-2 S1 protein [2] = biological target: T1, SARS-CoV-2 S1 protein; type: binding

Structure (SMILES) | kon (SARS-CoV-2 S1 protein [1]) [M⁻¹ s⁻¹] | koff (SARS-CoV-2 S1 protein [1]) [s⁻¹] | binding to S1 protein in ELISA-like assay (in words) (SARS-CoV-2 S1 protein [2])
CC[C@H](C)[C@H](NC(=O)[C@@H](NC(=O)[C@H](Cc1ccc(O)cc1)NC(=O)[C@H](Cc1ccccc1)NC(=O)[C@H](Cc1ccc(O)cc1)NC(=O)[C@@H](NC(=O)[C@H](CCC(=O)O)NC(=O)[C@H](CCSC)NC(=O)[C@H](Cc1c[nH]c2ccccc12)NC(=O)[C@H](Cc1c[nH]cn1)NC(=O)[C@H](CO)NC(=O)[C@H](Cc1ccccc1)NC(=O)[C@H](CCSC)NC(=O)[C@H](CC(=O)O)NC(=O)[C@H](Cc1c[nH]c2ccccc12)NC(=O)[C@H](CC(=O)O)NC(=O)[C@@H](NC(=O)[C@H](CCCCN)NC(=O)CCOCCOCCOCCOCCNC(=O)CCCC[C@@H]1SC[C@@H]2NC(=O)N[C@@H]21)[C@@H](C)O)[C@@H](C)CC)C(C)C)C(=O)O [Peptide P180] ({Biotin-PEG4}-KTDWDMFSHWMEIYFYVI-OH; C-terminus assumed) | 3830 | 0.000929 | higher binding affinity than the original ACE2 fragment (SBP1)
CC(C)C[C@H](NC(=O)[C@H](CC(=O)O)NC(=O)[C@H](CCC(=O)O)NC(=O)[C@H](Cc1c[nH]c2ccccc12)NC(=O)[C@H](CCC(=O)O)NC(=O)[C@H](CC(C)C)NC(=O)[C@H](CC(N)=O)NC(=O)[C@H](Cc1ccccc1)NC(=O)[C@@H](NC(=O)[C@H](Cc1ccccc1)NC(=O)[C@H](CC(C)C)NC(=O)[C@H](Cc1ccccc1)NC(=O)[C@H](CC(C)C)NC(=O)[C@@H](NC(=O)[C@H](Cc1c[nH]c2ccccc12)NC(=O)[C@H](CC(=O)O)NC(=O)CCOCCOCCOCCOCCNC(=O)CCCC[C@@H]1SC[C@@H]2NC(=O)N[C@@H]21)[C@@H](C)O)C(C)C)C(=O)N[C@@H](Cc1ccccc1)C(=O)N[C@@H](Cc1ccc(O)cc1)C(=O)O [Peptide P89] ({Biotin-PEG4}-DWTLFLFVFNLEWEDLFY-OH; C-terminus assumed) | 7800 | 0.000969 | higher binding affinity than the original ACE2 fragment (SBP1)
CC[C@H](C)[C@H](NC(=O)[C@H](CCC(=O)O)NC(=O)[C@H](Cc1ccc(O)cc1)NC(=O)[C@H](Cc1ccc(O)cc1)NC(=O)[C@H](CCSC)NC(=O)[C@H](Cc1c[nH]cn1)NC(=O)[C@H](CCSC)NC(=O)[C@H](Cc1c[nH]c2ccccc12)NC(=O)[C@H](CCCCN)NC(=O)[C@H](CC(=O)O)NC(=O)[C@H](Cc1c[nH]c2ccccc12)NC(=O)[C@H](CCC(=O)O)NC(=O)[C@@H](NC(=O)[C@H](CCCCN)NC(=O)CCOCCOCCOCCOCCNC(=O)CCCC[C@@H]1SC[C@@H]2NC(=O)N[C@@H]21)[C@@H](C)O)C(=O)N[C@@H](Cc1ccccc1)C(=O)N[C@@H](Cc1ccc(O)cc1)C(=O)N[C@@H](CCC(=O)O)C(=O)N[C@@H](CC(=O)O)C(=O)O [Peptide P100] ({Biotin-PEG4}-KTEWDKWMHMYYEIFYED-OH; C-terminus assumed) | 3930 | 0.000728 | higher binding affinity than the original ACE2 fragment (SBP1)
CC[C@H](C)[C@H](NC(=O)[C@H](CC(=O)O)NC(=O)[C@H](Cc1ccccc1)NC(=O)[C@H](CC(N)=O)NC(=O)CCOCCOCCOCCOCCNC(=O)CCCC[C@@H]1SC[C@@H]2NC(=O)N[C@@H]21)C(=O)N[C@@H](CC(C)C)C(=O)N[C@@H](CC(C)C)C(=O)N[C@@H](Cc1ccccc1)C(=O)N[C@H](C(=O)N[C@@H](Cc1ccccc1)C(=O)N[C@@H](CC(N)=O)C(=O)N[C@@H](Cc1ccc(O)cc1)C(=O)N[C@@H](CCC(=O)O)C(=O)N[C@@H](CCSC)C(=O)N[C@@H](CCC(=O)O)C(=O)N[C@@H](CC(=O)O)C(=O)N[C@@H](CCCCN)C(=O)N[C@@H](Cc1ccccc1)C(=O)N[C@@H](Cc1ccc(O)cc1)C(=O)O)C(C)C [Peptide P168] ({Biotin-PEG4}-NFDILLFVFNYEMEDKFY-OH; C-terminus assumed) | 7490 | 0.00107 | higher binding affinity than the original ACE2 fragment (SBP1)
